Results published in the NIST ThermoML archive (doi:10.1021/je4010678).
Numbers after ± are expanded uncertainties.

Experiment: xn = mol fraction of the nth substance listed
Conditions: 101 kPa, Liquid, Scientific instruments device model 9700

With `[I-].[K+]` [potassium iodide] + C[S+](C)[O-] the electrical conductivity (293.15 K, x1 = 0.0001281) was 0.00573 ± 0.0056 S/m, the electrical conductivity (293.15 K, x1 = 0.0001586) was 0.00687 ± 0.0069 S/m and the electrical conductivity (293.15 K, x1 = 0.0003312) was 0.0147 ± 0.013 S/m. The electrical conductivity (293.15 K, x1 = 0.0006135) was 0.0267 ± 0.017 S/m, the electrical conductivity (293.15 K, x1 = 0.001095) was 0.0457 ± 0.015 S/m and the electrical conductivity (293.15 K, x1 = 0.002002) was 0.0778 ± 0.014 S/m. It also gave an electrical conductivity (293.15 K, x1 = 0.005707) of 0.183 ± 0.014 S/m, an electrical conductivity (293.15 K, x1 = 0.01) of 0.348 ± 0.012 S/m and an electrical conductivity (293.15 K, x1 = 0.0197) of 0.605 ± 0.0071 S/m. The electrical conductivity (293.15 K, x1 = 0.04) was 0.8279 ± 0.0066 S/m, the electrical conductivity (293.15 K, x1 = 0.0499) was 0.9283 ± 0.0058 S/m and the electrical conductivity (293.15 K, x1 = 0.0707) was 0.9369 ± 0.0056 S/m. For the same compound, the electrical conductivity (295.15 K, x1 = 0.0001281) was 0.00602 ± 0.0058 S/m, the electrical conductivity (295.15 K, x1 = 0.0001586) was 0.00718 ± 0.0072 S/m and the electrical conductivity (295.15 K, x1 = 0.0003312) was 0.0153 ± 0.014 S/m. The electrical conductivity (295.15 K, x1 = 0.0006135) was 0.0279 ± 0.017 S/m, the electrical conductivity (295.15 K, x1 = 0.001095) was 0.0475 ± 0.015 S/m and the electrical conductivity (295.15 K, x1 = 0.002002) was 0.0809 ± 0.015 S/m. The electrical conductivity (295.15 K, x1 = 0.005707) was 0.19 ± 0.014 S/m, the electrical conductivity (295.15 K, x1 = 0.01) was 0.362 ± 0.012 S/m and the electrical conductivity (295.15 K, x1 = 0.0197) was 0.632 ± 0.0072 S/m. For the same compound, the electrical conductivity (295.15 K, x1 = 0.04) was 0.8651 ± 0.0069 S/m, the electrical conductivity (295.15 K, x1 = 0.0499) was 0.9694 ± 0.0059 S/m and the electrical conductivity (295.15 K, x1 = 0.0707) was 0.9785 ± 0.0059 S/m. For the same compound, the electrical conductivity (297.15 K, x1 = 0.0001281) was 0.0063 ± 0.006 S/m, the electrical conductivity (297.15 K, x1 = 0.0001586) was 0.00749 ± 0.0075 S/m and the electrical conductivity (297.15 K, x1 = 0.0003312) was 0.0159 ± 0.015 S/m. The electrical conductivity (297.15 K, x1 = 0.0006135) was 0.0291 ± 0.018 S/m, the electrical conductivity (297.15 K, x1 = 0.001095) was 0.0493 ± 0.016 S/m and the electrical conductivity (297.15 K, x1 = 0.002002) was 0.0841 ± 0.015 S/m. For the same compound, the electrical conductivity (297.15 K, x1 = 0.005707) was 0.198 ± 0.015 S/m, the electrical conductivity (297.15 K, x1 = 0.01) was 0.377 ± 0.013 S/m and the electrical conductivity (297.15 K, x1 = 0.0197) was 0.659 ± 0.0075 S/m. It also gave an electrical conductivity (297.15 K, x1 = 0.04) of 0.9006 ± 0.0072 S/m, an electrical conductivity (297.15 K, x1 = 0.0499) of 1.013 ± 0.006 S/m and an electrical conductivity (297.15 K, x1 = 0.0707) of 1.023 ± 0.006 S/m. The electrical conductivity (299.15 K, x1 = 0.0001281) was 0.00656 ± 0.0063 S/m, the electrical conductivity (299.15 K, x1 = 0.0001586) was 0.00782 ± 0.0078 S/m and the electrical conductivity (299.15 K, x1 = 0.0003312) was 0.0165 ± 0.015 S/m. For the same compound, the electrical conductivity (299.15 K, x1 = 0.0006135) was 0.0303 ± 0.018 S/m, the electrical conductivity (299.15 K, x1 = 0.001095) was 0.0511 ± 0.016 S/m and the electrical conductivity (299.15 K, x1 = 0.002002) was 0.0872 ± 0.016 S/m. It also gave an electrical conductivity (299.15 K, x1 = 0.005707) of 0.205 ± 0.015 S/m, an electrical conductivity (299.15 K, x1 = 0.01) of 0.392 ± 0.013 S/m and an electrical conductivity (299.15 K, x1 = 0.0197) of 0.686 ± 0.0078 S/m. For the same compound, the electrical conductivity (299.15 K, x1 = 0.04) was 0.9366 ± 0.0074 S/m, the electrical conductivity (299.15 K, x1 = 0.0499) was 1.051 ± 0.006 S/m and the electrical conductivity (299.15 K, x1 = 0.0707) was 1.067 ± 0.006 S/m. The electrical conductivity (301.15 K, x1 = 0.0001281) was 0.00683 ± 0.0065 S/m, the electrical conductivity (301.15 K, x1 = 0.0001586) was 0.00814 ± 0.0081 S/m and the electrical conductivity (301.15 K, x1 = 0.0003312) was 0.0171 ± 0.016 S/m. The electrical conductivity (301.15 K, x1 = 0.0006135) was 0.0315 ± 0.019 S/m, the electrical conductivity (301.15 K, x1 = 0.001095) was 0.0529 ± 0.017 S/m and the electrical conductivity (301.15 K, x1 = 0.002002) was 0.0904 ± 0.017 S/m. It also gave an electrical conductivity (301.15 K, x1 = 0.005707) of 0.213 ± 0.016 S/m, an electrical conductivity (301.15 K, x1 = 0.01) of 0.406 ± 0.014 S/m and an electrical conductivity (301.15 K, x1 = 0.0197) of 0.713 ± 0.0081 S/m. For the same compound, the electrical conductivity (301.15 K, x1 = 0.04) was 0.9737 ± 0.0077 S/m, the electrical conductivity (301.15 K, x1 = 0.0499) was 1.09 ± 0.007 S/m and the electrical conductivity (301.15 K, x1 = 0.0707) was 1.112 ± 0.007 S/m. It also gave an electrical conductivity (303.15 K, x1 = 0.0001281) of 0.00711 ± 0.0068 S/m, an electrical conductivity (303.15 K, x1 = 0.0001586) of 0.00847 ± 0.0084 S/m and an electrical conductivity (303.15 K, x1 = 0.0003312) of 0.0177 ± 0.016 S/m. The electrical conductivity (303.15 K, x1 = 0.0006135) was 0.0328 ± 0.02 S/m, the electrical conductivity (303.15 K, x1 = 0.001095) was 0.0547 ± 0.017 S/m and the electrical conductivity (303.15 K, x1 = 0.002002) was 0.0936 ± 0.017 S/m. The electrical conductivity (303.15 K, x1 = 0.005707) was 0.22 ± 0.017 S/m, the electrical conductivity (303.15 K, x1 = 0.01) was 0.421 ± 0.015 S/m and the electrical conductivity (303.15 K, x1 = 0.0197) was 0.741 ± 0.0085 S/m. The electrical conductivity (303.15 K, x1 = 0.04) was 1.011 ± 0.008 S/m, the electrical conductivity (303.15 K, x1 = 0.0499) was 1.132 ± 0.007 S/m and the electrical conductivity (303.15 K, x1 = 0.0707) was 1.152 ± 0.007 S/m. The electrical conductivity (305.15 K, x1 = 0.0001281) was 0.00737 ± 0.007 S/m, the electrical conductivity (305.15 K, x1 = 0.0001586) was 0.0088 ± 0.0087 S/m and the electrical conductivity (305.15 K, x1 = 0.0003312) was 0.0184 ± 0.017 S/m. For the same compound, the electrical conductivity (305.15 K, x1 = 0.0006135) was 0.034 ± 0.02 S/m, the electrical conductivity (305.15 K, x1 = 0.001095) was 0.0566 ± 0.018 S/m and the electrical conductivity (305.15 K, x1 = 0.002002) was 0.0969 ± 0.018 S/m. For the same compound, the electrical conductivity (305.15 K, x1 = 0.005707) was 0.228 ± 0.017 S/m, the electrical conductivity (305.15 K, x1 = 0.01) was 0.436 ± 0.015 S/m and the electrical conductivity (305.15 K, x1 = 0.0197) was 0.768 ± 0.0088 S/m. The electrical conductivity (305.15 K, x1 = 0.04) was 1.047 ± 0.008 S/m, the electrical conductivity (305.15 K, x1 = 0.0499) was 1.169 ± 0.007 S/m and the electrical conductivity (305.15 K, x1 = 0.0707) was 1.199 ± 0.007 S/m. For the same compound, the electrical conductivity (307.15 K, x1 = 0.0001281) was 0.00763 ± 0.0073 S/m, the electrical conductivity (307.15 K, x1 = 0.0001586) was 0.0092 ± 0.009 S/m and the electrical conductivity (307.15 K, x1 = 0.0003312) was 0.0191 ± 0.017 S/m. For the same compound, the electrical conductivity (307.15 K, x1 = 0.0006135) was 0.0352 ± 0.021 S/m, the electrical conductivity (307.15 K, x1 = 0.001095) was 0.0584 ± 0.019 S/m and the electrical conductivity (307.15 K, x1 = 0.002002) was 0.1 ± 0.018 S/m. For the same compound, the electrical conductivity (307.15 K, x1 = 0.005707) was 0.235 ± 0.018 S/m, the electrical conductivity (307.15 K, x1 = 0.01) was 0.451 ± 0.016 S/m and the electrical conductivity (307.15 K, x1 = 0.0197) was 0.794 ± 0.0091 S/m. For the same compound, the electrical conductivity (307.15 K, x1 = 0.04) was 1.083 ± 0.009 S/m, the electrical conductivity (307.15 K, x1 = 0.0499) was 1.208 ± 0.007 S/m and the electrical conductivity (307.15 K, x1 = 0.0707) was 1.244 ± 0.008 S/m.
